In test [1] the target is T1, Microphthalmia-associated transcription factor (Homo sapiens, UniProt O75030).
T1 sequence (O75030 whole entry): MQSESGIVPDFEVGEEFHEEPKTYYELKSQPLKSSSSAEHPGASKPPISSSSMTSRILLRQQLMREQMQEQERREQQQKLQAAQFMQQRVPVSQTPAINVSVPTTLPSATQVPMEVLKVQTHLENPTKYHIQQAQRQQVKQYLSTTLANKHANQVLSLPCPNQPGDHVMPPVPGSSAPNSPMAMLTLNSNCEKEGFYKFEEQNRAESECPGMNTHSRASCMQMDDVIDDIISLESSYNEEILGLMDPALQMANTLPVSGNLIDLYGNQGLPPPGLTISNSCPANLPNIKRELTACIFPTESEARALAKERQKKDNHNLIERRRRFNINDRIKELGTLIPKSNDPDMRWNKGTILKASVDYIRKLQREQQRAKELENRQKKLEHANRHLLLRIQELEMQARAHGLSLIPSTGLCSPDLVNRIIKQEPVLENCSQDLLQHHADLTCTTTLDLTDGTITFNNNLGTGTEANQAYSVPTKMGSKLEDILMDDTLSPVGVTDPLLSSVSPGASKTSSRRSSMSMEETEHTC
Briefly: reducers of TRPM1 reporter luminescence, concentration series – cell-based, SK-MEL-5, cherry-picked, set 3, MITF inhibitor project, dose response (AID 493073).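 Note: SK-MEL-5 melanoma cells with luciferase driven by the MITF target TRPM1 promoter.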 Type of test: functional.

Test [2] relates to A-375. Put plainly: proliferation inhibition in MITF-low A375 cells – cell-based, cherry-pick samples, set 2, counter-screen for MITF modulator project, dose response (AID 540335). Type of test: functional. To be noted: Homo sapiens. Background: A counterscreen serves to expose hits that act by an unwanted route or on another target.
In test [3] the target is T2, Ubiquitin-conjugating enzyme E2 N (Homo sapiens, UniProt P61088).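 Note: Dose-response confirmation in a TR-FRET assay detecting UBC13-driven polyubiquitin chain formation, inhibition measured.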
T2 sequence (P61088 whole entry): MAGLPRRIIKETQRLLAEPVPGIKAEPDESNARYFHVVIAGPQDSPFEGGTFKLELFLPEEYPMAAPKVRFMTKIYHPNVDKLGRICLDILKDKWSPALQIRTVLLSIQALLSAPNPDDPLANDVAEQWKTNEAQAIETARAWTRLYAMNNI
It is filed as functional.

Test [4] has as its target X-box-binding protein 1 (Homo sapiens, UniProt P17861). It is filed as functional, Cricetulus griseus.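 Note: confirmatory dose-response counter-screen serving a CHOP assay.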
Test [5] concerns A-375. Put plainly: MITF: Counter assay: A375 proliferation Measured in Cell-Based System Using Plate Reader - 2084-03_Inhibitor_Dose_DryPowder_Activity. [Related pubchem assays (depositor defined):AID488944]. It is filed as functional. To be noted: Homo sapiens.
Test [6] is described as follows: viability of HCT116 lacking mutant beta-catenin – cell-based, human colon tumor, dose response (AID 1045).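 Note: HCT116 colon tumor cells with beta catenin knocked out; cells exposed to compound for 60 hours.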 Type of test: functional.
The nature of test [7]: viability of PTEN-deleted HCT116 cells – cell-based, HCT116 PTEN knockout, dose response (AID 1047).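 Note: HCT116 colon tumor cells with PTEN knocked out; cells exposed to compound for 60 hours before readout; potency for loss of cell viability measured by luminescence.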 It is filed as functional.
For test [8], the target named is T3, Endoribonuclease toxin MazF (Escherichia coli K-12, UniProt P0AE70).
T3 sequence (P0AE70 whole entry): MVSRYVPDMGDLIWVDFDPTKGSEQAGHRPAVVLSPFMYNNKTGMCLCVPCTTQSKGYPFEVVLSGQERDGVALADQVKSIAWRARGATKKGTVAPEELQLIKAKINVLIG
Put plainly: activation of MazEF endoribonuclease cleavage – biochemical, fluorescence, single-stranded RNA substrate, uHTS hits, dose response (AID 588481). It is filed as functional.

In test [9] the target is T4, RNA-binding protein pos-1 (Caenorhabditis elegans, UniProt G5EF15).
T4 sequence (G5EF15 whole entry): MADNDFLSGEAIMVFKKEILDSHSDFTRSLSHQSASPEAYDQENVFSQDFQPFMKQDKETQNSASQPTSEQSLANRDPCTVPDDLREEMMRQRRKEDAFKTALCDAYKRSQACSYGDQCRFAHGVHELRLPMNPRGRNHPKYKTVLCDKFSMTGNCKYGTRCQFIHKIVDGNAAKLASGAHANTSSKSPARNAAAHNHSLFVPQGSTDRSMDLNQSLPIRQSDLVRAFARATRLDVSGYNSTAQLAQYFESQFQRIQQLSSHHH
Briefly: disruptors of C. elegans POS-1 RNA interaction – biochemical, fluorescence polarization, dose response (AID 1964).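 Note: purified POS-1 fused to maltose binding protein made in E. coli; potency of compounds blocking POS-1 binding to fluorescent RNA.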 A general note: Polarisation of emitted light reports the rotation of a fluorescent probe.

The target of test [10] is T3, Endoribonuclease toxin MazF. Briefly: substrate-only fluorescence increase artefacts – biochemical, single-stranded RNase substrate, counter-screen for MazEF activator project, dose response (AID 588502). Type of test: functional.
Test [11] deals with T5, Zinc finger protein mex-5 (Caenorhabditis elegans, UniProt Q9XUB2).
T5 sequence (Q9XUB2 whole entry): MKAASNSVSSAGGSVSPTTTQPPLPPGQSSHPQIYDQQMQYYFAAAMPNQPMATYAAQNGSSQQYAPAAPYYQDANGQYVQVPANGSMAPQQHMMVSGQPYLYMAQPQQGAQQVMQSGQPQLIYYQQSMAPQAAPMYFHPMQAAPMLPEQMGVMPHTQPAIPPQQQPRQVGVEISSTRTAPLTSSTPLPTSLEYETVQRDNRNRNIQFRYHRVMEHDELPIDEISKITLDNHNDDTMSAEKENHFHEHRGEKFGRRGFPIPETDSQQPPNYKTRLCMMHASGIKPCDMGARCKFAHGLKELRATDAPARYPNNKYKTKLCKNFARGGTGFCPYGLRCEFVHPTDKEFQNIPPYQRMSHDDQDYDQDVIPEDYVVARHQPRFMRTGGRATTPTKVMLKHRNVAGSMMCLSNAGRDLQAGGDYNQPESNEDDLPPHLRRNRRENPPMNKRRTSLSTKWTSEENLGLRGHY
Briefly: potency of MEX-5 RNA-binding blockers – biochemical, C. elegans, fluorescence polarization, dose response (AID 1960).

The target in test [12] is Cytochrome P450 2C19 (Homo sapiens, UniProt P33261). Briefly: Cytochrome panel assay with activity outcomes. Panel member name: p450-cyp2c19 Compounds with AC50 equal or less than 10 uM are considered active. Type of test: functional. To be noted: read-out: AC50.
Chain of Cytochrome P450 2C19 (P33261 whole entry): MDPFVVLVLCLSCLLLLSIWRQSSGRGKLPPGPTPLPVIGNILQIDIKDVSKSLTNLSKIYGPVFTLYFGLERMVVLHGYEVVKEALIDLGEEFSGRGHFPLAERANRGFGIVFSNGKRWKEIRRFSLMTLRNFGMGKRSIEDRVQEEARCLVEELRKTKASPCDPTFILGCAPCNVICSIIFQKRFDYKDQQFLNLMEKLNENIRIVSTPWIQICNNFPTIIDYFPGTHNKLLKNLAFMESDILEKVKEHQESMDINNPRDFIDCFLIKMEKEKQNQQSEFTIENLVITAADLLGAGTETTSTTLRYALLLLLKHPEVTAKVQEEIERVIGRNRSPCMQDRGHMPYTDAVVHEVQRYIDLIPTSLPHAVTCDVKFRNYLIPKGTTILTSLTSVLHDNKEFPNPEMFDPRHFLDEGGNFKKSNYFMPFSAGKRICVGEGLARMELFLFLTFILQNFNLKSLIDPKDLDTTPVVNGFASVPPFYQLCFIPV
The test system of test [13] is HEK293. Briefly: HEK293T cell viability loss, resazurin readout – resazurin fluorescence, cytotoxicity control for NF-kB activator project, SAR follow-up (AID 493251). It is filed as functional, cell-based. To be noted: Homo sapiens. Background: Alamar Blue is a resazurin reagent that responds to reducing activity.
Test [14] is described as follows: HEK-293T cell viability reduction – luminescence, B-cell screen hits, cytotoxicity control for BCR NF-kB inhibitor project, dose response (AID 489021).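 Note: HEK-293T cells carrying an NF-kB luciferase reporter; cells exposed to compound for about 14 hours before viability readout.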 Type of test: functional, cell-based.
For test [15], the system named is Jurkat. Briefly: SAR Analysis of small molecule inhibitors of T-cell specific antigen receptor-induced NF-kB activation in a Jurkat cell line using a luminescence assay - Set 2. [Related pubchem assays (depositor defined):AID435003, AID435012, AID465]. It is filed as functional, cell-based. To be noted: Homo sapiens.
Test [16] concerns HEK293. Put plainly: SAR Analysis of small molecule inhibitors of T-cell specific antigen receptor-induced NF-kB activation in a HEK-293T cell line using a luminescence assay - Set 2. [Related pubchem assays (depositor defined):AID435003, AID435012, AID489026]. It is filed as functional, cell-based. To be noted: Homo sapiens.
In test [17] the test system is Escherichia coli. Briefly: microbe, parasite or virus in culture.
The nature of test [18]: NIH3T3 cell viability loss – ATP luminescence, mouse fibroblasts, counter-screen, dose response (AID 2010).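 Note: cells exposed to compound for about 90 hours before reading.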 Type of test: functional, cell-based.
Test [19] relates to Escherichia coli. Put plainly: microbe, parasite or virus in culture. The source holds these as a separate data set.
Test [20] in a line: Trypanosoma cruzi growth suppression in host cells – NIH3T3 host cells, beta-gal luminescence, confirmation (AID 2044).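 Note: intracellular parasites grown in NIH/3T3 mouse fibroblasts as host cells; luminescent beta-galactosidase reporter signal from transgenic T. cruzi replicating inside host cells; inhibitors lower the luminescence signal.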 It is filed as functional, cell-based.

SMILES strings stand for the structures. Calls of active or inactive are those of the source.

One may read the AC50 as the midpoint of the concentration-response curve, whichever way the signal moves. Broadly, the IC50 is the midpoint of a concentration-inhibition curve. For orientation: EC50 means the concentration that produces a half-maximal response.

Chain of X-box-binding protein 1 (P17861 whole entry): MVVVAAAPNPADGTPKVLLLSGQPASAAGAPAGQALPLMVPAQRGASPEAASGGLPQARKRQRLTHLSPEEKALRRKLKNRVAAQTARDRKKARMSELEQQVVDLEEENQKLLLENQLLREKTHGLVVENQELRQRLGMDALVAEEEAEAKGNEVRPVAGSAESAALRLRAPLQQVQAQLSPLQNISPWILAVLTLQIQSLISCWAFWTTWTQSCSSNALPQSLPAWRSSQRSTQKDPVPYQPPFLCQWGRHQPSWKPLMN

For `Cc1cccc(/C=C2/Sc3ccc(C(=O)NCCN4CCCC4)cc3NC2=O)c1`, the AC50 in test [1] is 18.4 µM (active); in [2], 21.1 µM (active). Besides, in test [3], the IC50 was > 20 µM (inactive).
As to `Br.N=c1n(CC(=O)c2ccc([N+](=O)[O-])cc2)c2ccccc2n1Cc1ccc(Cl)cc1`, in test [4], the “Absolute IC50 (XBP1)” value amounted to 10 µM. Moreover, in test [5], the AC50 is 22.2 µM (active). Moreover, the EC50 in test [6] is 5.28 µM (active); in test [7], 5.38 µM (active); in test [8] it was > 99 µM (inactive); in [9], 125 µM (active); in test [10] it was 1.93 µM (active); in [11], > 300 µM (not active).
For the compound `CN(C)C(=O)CCc1nc(-c2ccc(C(C)(C)C)cc2)no1`, the concentration at half-maximal activity (AC50) in test [12] is 22.4 µM (inconclusive). In addition, the IC50 in [13] was > 80 µM (inactive); in [14] it was > 80 µM (inactive); in test [15], > 79 µM (inactive); in test [16], 48.5 µM (inactive).
On to `N#C/C(=C\c1ccc(N2CCCCC2)c([N+](=O)[O-])c1)c1nn(-c2ccccc2)c(N)c1C#N`, for which the AC50 is > 380 µM (inactive) in [17] and 26.2 µM (active) in test [19]. Also, the half-maximal effective concentration (EC50) in test [18] was > 30 µM (not active); in test [20], 1.81 µM (active).
